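The compound was tested at five concentrations on cells cultured in 96-well plates, with a 48-hour exposure period. Abbreviation: GI50, concentration required for 50% inhibition of growth. TGI: total growth inhibition.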
Experiments:
Assay in all cases: DTP human tumour cell line panel, 48 h
786-0 renal = test system: 786-0 renal
A498 renal = test system: A498 renal
A549 NSCLC = test system: A549 NSCLC
ACHN renal = test system: ACHN renal
BT-549 breast = test system: BT-549 breast
CAKI-1 renal = test system: CAKI-1 renal
CCRF-CEM leukemia = test system: CCRF-CEM leukemia
COLO 205 colon = test system: COLO 205 colon
DU-145 prostate = test system: DU-145 prostate
EKVX NSCLC = test system: EKVX NSCLC
HCC-2998 colon = test system: HCC-2998 colon
HCT-116 colon = test system: HCT-116 colon
HCT-15 colon = test system: HCT-15 colon
HL-60(TB) leukemia = test system: HL-60(TB) leukemia
HOP-62 NSCLC = test system: HOP-62 NSCLC
HOP-92 NSCLC = test system: HOP-92 NSCLC
HS 578T breast = test system: HS 578T breast
HT29 colon = test system: HT29 colon
IGROV1 ovarian = test system: IGROV1 ovarian
K-562 leukemia = test system: K-562 leukemia
KM12 colon = test system: KM12 colon
LOX IMVI melanoma = test system: LOX IMVI melanoma
M14 melanoma = test system: M14 melanoma
MALME-3M melanoma = test system: MALME-3M melanoma
MCF7 breast = test system: MCF7 breast
MDA-MB-231 breast = test system: MDA-MB-231 breast
MDA-MB-435 = test system: MDA-MB-435
MOLT-4 leukemia = test system: MOLT-4 leukemia
NCI-H226 lung = test system: NCI-H226 lung
NCI-H23 lung = test system: NCI-H23 lung
NCI-H460 lung = test system: NCI-H460 lung
NCI-H522 lung = test system: NCI-H522 lung
NCI/ADR-RES ovarian = test system: NCI/ADR-RES ovarian
OVCAR-3 ovarian = test system: OVCAR-3 ovarian
OVCAR-4 ovarian = test system: OVCAR-4 ovarian
OVCAR-5 ovarian = test system: OVCAR-5 ovarian
OVCAR-8 ovarian = test system: OVCAR-8 ovarian
PC-3 prostate = test system: PC-3 prostate
RPMI-8226 leukemia = test system: RPMI-8226 leukemia
RXF 393 renal = test system: RXF 393 renal
SF-268 CNS = test system: SF-268 CNS
SF-295 CNS = test system: SF-295 CNS
SF-539 CNS = test system: SF-539 CNS
SK-MEL-2 melanoma = test system: SK-MEL-2 melanoma
SK-MEL-28 melanoma = test system: SK-MEL-28 melanoma
SK-MEL-5 melanoma = test system: SK-MEL-5 melanoma
SK-OV-3 ovarian = test system: SK-OV-3 ovarian
SN12C renal = test system: SN12C renal
SNB-19 CNS = test system: SNB-19 CNS
SNB-75 CNS = test system: SNB-75 CNS
SR leukemia = test system: SR leukemia
SW-620 colon = test system: SW-620 colon
T-47D breast = test system: T-47D breast
TK-10 renal = test system: TK-10 renal
U251 CNS = test system: U251 CNS
UACC-257 melanoma = test system: UACC-257 melanoma
UACC-62 melanoma = test system: UACC-62 melanoma
UO-31 renal = test system: UO-31 renal

O=C1/C=C/[C@@H](O)[C@@H]2C[C@@H](O)C[C@H]2/C=C/CCC[C@H](CCc2ccccc2)O1
GI50 (786-0 renal): 12.5 nM
TGI (786-0 renal): 45.3 nM
GI50 (A498 renal): < 11.8 nM
TGI (A498 renal): 40.9 nM
GI50 (A549 NSCLC): 40.8 nM
TGI (A549 NSCLC): > 100000 nM
GI50 (ACHN renal): 37.1 nM
TGI (ACHN renal): > 100000 nM
GI50 (BT-549 breast): 48.5 nM
TGI (BT-549 breast): 14300 nM
GI50 (CAKI-1 renal): 36.1 nM
TGI (CAKI-1 renal): 3650 nM
GI50 (CCRF-CEM leukemia): 39.1 nM
TGI (CCRF-CEM leukemia): > 59400 nM
GI50 (COLO 205 colon): 19.7 nM
TGI (COLO 205 colon): 36.9 nM
GI50 (DU-145 prostate): 49.9 nM
TGI (DU-145 prostate): > 100000 nM
GI50 (EKVX NSCLC): 36.9 nM
TGI (EKVX NSCLC): 14600 nM
GI50 (HCC-2998 colon): 29.6 nM
TGI (HCC-2998 colon): 994 nM
GI50 (HCT-116 colon): 23.1 nM
TGI (HCT-116 colon): 54.9 nM
GI50 (HCT-15 colon): 34.3 nM
TGI (HCT-15 colon): 13000 nM
GI50 (HL-60(TB) leukemia): 30.7 nM
TGI (HL-60(TB) leukemia): 128 nM
GI50 (HOP-62 NSCLC): 37.1 nM
TGI (HOP-62 NSCLC): 20500 nM
GI50 (HOP-92 NSCLC): 31 nM
TGI (HOP-92 NSCLC): 396 nM
GI50 (HS 578T breast): < 10 nM
TGI (HS 578T breast): 21700 nM
GI50 (HT29 colon): 31.5 nM
TGI (HT29 colon): 470 nM
GI50 (IGROV1 ovarian): 40.2 nM
TGI (IGROV1 ovarian): 13200 nM
GI50 (K-562 leukemia): 38.4 nM
TGI (K-562 leukemia): 22700 nM
GI50 (KM12 colon): < 10 nM
TGI (KM12 colon): 26.3 nM
GI50 (LOX IMVI melanoma): 21.1 nM
TGI (LOX IMVI melanoma): 48 nM
GI50 (M14 melanoma): 26.4 nM
TGI (M14 melanoma): 10700 nM
GI50 (MALME-3M melanoma): 23.1 nM
TGI (MALME-3M melanoma): 85.4 nM
GI50 (MCF7 breast): 23.4 nM
TGI (MCF7 breast): 55.1 nM
GI50 (MDA-MB-231 breast): 20.4 nM
TGI (MDA-MB-231 breast): 42.7 nM
GI50 (MDA-MB-435): 36.5 nM
TGI (MDA-MB-435): 14000 nM
GI50 (MOLT-4 leukemia): 36 nM
GI50 (NCI-H226 lung): 17.9 nM
TGI (NCI-H226 lung): 74.8 nM
GI50 (NCI-H23 lung): 33.4 nM
TGI (NCI-H23 lung): 285 nM
GI50 (NCI-H460 lung): 38.9 nM
TGI (NCI-H460 lung): 15700 nM
GI50 (NCI-H522 lung): 41.2 nM
TGI (NCI-H522 lung): 200 nM
GI50 (NCI/ADR-RES ovarian): 28.9 nM
TGI (NCI/ADR-RES ovarian): 823 nM
GI50 (OVCAR-3 ovarian): 25.4 nM
TGI (OVCAR-3 ovarian): 61.1 nM
GI50 (OVCAR-4 ovarian): 37.3 nM
TGI (OVCAR-4 ovarian): 9480 nM
GI50 (OVCAR-5 ovarian): 57.3 nM
TGI (OVCAR-5 ovarian): > 100000 nM
GI50 (OVCAR-8 ovarian): 29.4 nM
TGI (OVCAR-8 ovarian): 12700 nM
GI50 (PC-3 prostate): 44.4 nM
TGI (PC-3 prostate): 24800 nM
GI50 (RPMI-8226 leukemia): 41.4 nM
TGI (RPMI-8226 leukemia): 5310 nM
GI50 (RXF 393 renal): < 10 nM
TGI (RXF 393 renal): < 21.2 nM
GI50 (SF-268 CNS): 22.9 nM
TGI (SF-268 CNS): 7380 nM
GI50 (SF-295 CNS): 38 nM
TGI (SF-295 CNS): > 50000 nM
GI50 (SF-539 CNS): 53.2 nM
TGI (SF-539 CNS): > 66500 nM
GI50 (SK-MEL-2 melanoma): 31.8 nM
TGI (SK-MEL-2 melanoma): 100 nM
GI50 (SK-MEL-28 melanoma): < 10 nM
TGI (SK-MEL-28 melanoma): 45.6 nM
GI50 (SK-MEL-5 melanoma): < 10 nM
TGI (SK-MEL-5 melanoma): 16.8 nM
GI50 (SK-OV-3 ovarian): 34.3 nM
TGI (SK-OV-3 ovarian): 27000 nM
GI50 (SN12C renal): 37.3 nM
TGI (SN12C renal): 14100 nM
GI50 (SNB-19 CNS): 51.4 nM
TGI (SNB-19 CNS): > 88100 nM
GI50 (SNB-75 CNS): < 12.4 nM
TGI (SNB-75 CNS): 33800 nM
GI50 (SR leukemia): 35 nM
GI50 (SW-620 colon): 28.7 nM
TGI (SW-620 colon): 84.7 nM
GI50 (T-47D breast): 48.3 nM
TGI (T-47D breast): 30700 nM
GI50 (TK-10 renal): 34.8 nM
TGI (TK-10 renal): 206 nM
GI50 (U251 CNS): 40.6 nM
TGI (U251 CNS): 30100 nM
GI50 (UACC-257 melanoma): 37.5 nM
TGI (UACC-257 melanoma): 21700 nM
GI50 (UACC-62 melanoma): 46.7 nM
TGI (UACC-62 melanoma): 9000 nM
GI50 (UO-31 renal): 31.7 nM
TGI (UO-31 renal): 13400 nM
